Converted amounts (≈) assume the structure as drawn.
How the values were obtained:
human hepatocytes = assay: Human Hepatocyte (HHEP) stability assay, clearance; format: in vitro ADME; conditions: for HHEPG clearance: human hepatocytes, 0.5 million cells/mL, 1 µM test compound
Procedure: Human Hepatocyte (HHEP) assay: The high throughput HHEP stability assay was performed in a 384-well format (Greiner Bio-One, Monroe, NC). The cryopreserved HHEP were thawed, and re-suspended in Williams E medium (WEM, custom formula number 91-5233EC; Invitrogen, Grand Island, NY) supplemented with HEPES and Na2CO3. The cells were counted using the Trypan Blue exclusion method. A multidrop liquid dispenser (Multidrop DW, Thermo Scientific, Waltham, MA) was used to add the HHEP suspensions to the 384-well plates. The cell plates were covered and transferred to a Cytomat 2 incubator (ThermoFisher) and Biomek i7 (Beckman Coulter, Indianapolis, IN), equipped with three 3position MéCour heat exchangers. Test compounds were diluted on the Biomek i7 with buffer (15 µL) and added to the HHEP (30 µL). The final incubation contained 0.5 million cells/mL and 1 µM test compound in 45 µL total volume containing 0.01% DMSO. The incubation was carried out at 37 °C in the Cytomat 2 incubator (relative humidity ≥ 90%, 5% CO2/95% air). At various time points (2, 4, 11, 45, 75, 120, and 240 min), the plate was pulled out from the incubator by the Biomek i7 robot and put on the MéCour heated exchanger. Samples (3 µL) were transferred to a 384-well plate containing 30 µL acetonitrile with an internal standard (IS) to quench the reaction. Water (60 µL) was added to the quenched plate to dilute the organic solvent content for LC-MS/MS analysis. The plates were centrifuged at 3000 rpm for 10 min at 4 °C, sealed and subsequently analyzed using LC-MS/MS without further transfer of the supernatant.
Propranolol (CYP2D6), midazolam (CYP3A) and triazolam (CYP3A, low clearance), naloxone (UGT2B7), carbazeran (AO), and verapamil (CYP3A, CYP2C8) were used as positive controls. For CYP inhibition study, 1 mM ABT (a pan-cYP inhibitor) was pre-incubated with HHEP for 30 minutes at 37 °C before adding test compounds. Values are n >3 unless […]
(§1) Permeability assay (RRCK): Ralph Russ canine kidney cells were used for permeability measurements using a cell monolayer in 96-transwell format. The detailed assay conditions have been reported previously.9 Test compounds were added to the donor wells and a buffer was added to the receiver wells to start the apical to basolateral transport assay.
(§2) Time 0 and 1.5 h incubation samples were taken for LC-MS/MS analysis. Apparent permeability (Papp) was calculated using the equation below (1), where Area is the surface area of the cell monolayer (0.0625 cm2), CD(0) is the […]

[1] = Permeability assay (RRCK); format: in vitro ADME, canine; conditions: dog, MDCK, apical to basolateral, average of 2 runs, footnote b = only one replicate
[2] = Shake flask LogD (SFLogD) assay; format: physicochemical; conditions: for logD: pH = 7.4, octanol/water shake flask, average of 2 runs unless otherwise stated
Procedure: as §1, §2

Kinetic solubility = format: physicochemical; conditions: for solubility at 24 h: aqueous pH buffer, aqueous buffer, kinetic from dmso stock, 37 °C, 600 µM start; for Kinetic solubility, in words: across acidic, neutral, and basic conditions, compared with benzamide counterpart
Procedure: Aqueous buffer preparation: pH 3: 50 µL of 1N hydrochloric acid was added to 500 mL of deionized water. The solution was titrated with 1N hydrochloric acid to pH 3, and back titrated with 1N sodium hydroxide. pH 7.4: 100 mM sodium phosphate buffer is made by adding 56.4 g of dibasic sodium phosphate and 10.3 g of monobasic sodium phosphate to 4 L of deionized water. 250 µL of 100 mM sodium phosphate buffer was diluted with 250 µL of deionized water. The solution was titrated with 1N hydrochloric acid to pH 7.4, and back titrated with 1N sodium hydroxide. pH 10: Fisher Scientific pH 10 buffer (SB116-500) containing potassium hydroxide, potassium carbonate, and potassium […]
pH 12.8: 30 mL of 1N NaOH was added to 200 mL of deionized water. The solution was titrated with 1N sodium hydroxide to pH 12.8 and back titrated with 1N hydrochloric acid.
Kinetic solubility: Samples were diluted to 600 µM in the appropriate pH buffer (pH: 3, 7.4, 10) and to 600 µM (assumed 100% solubility) in a DMSO standard. Samples were mixed thoroughly and incubated at 37 °C for 24 h.
Following incubation, pH samples were transferred to a […] PVDF (low binding) and filtered to remove any precipitate. The filtrate was collected and analyzed via MS/MS. The ratio of MS response (DMSO:pH) is taken and multiplied by the initial 600 µM concentration to determine the concentration (solubility) of the samples in pH buffers. […]
as §1, §2

HHEPG clearance (human hepatocytes) | Papp at 1.5 h [1] | logD [2] | solubility at 24 h (Kinetic solubility; pH 3) | solubility at 24 h (Kinetic solubility; pH 7.4) | solubility at 24 h (Kinetic solubility; pH 10) | Kinetic solubility, in words (Kinetic solubility) | Change in SFlogD of the carbonyl-to-oxetane replacement ([2]; pH 7.4, amino-oxetane versus matched benzamide) | Structure (SMILES) | HHEPG clearance, in words (human hepatocytes; compared with benzamide counterpart)
< 2 μL min^−1 million^−1 | 47.2 ×10⁻⁶ cm/s | 1.08 | – | – | – | – | – | O=C(c1ccc(Oc2ccccn2)cc1)N1CCOCC1 [9b, Morpholino(4-(Pyridin-2-yloxy)Phenyl)Methanone] | –
< 2 μL min^−1 million^−1 | < 36.1 ×10⁻⁶ cm/s | 1.66 | – | – | – | – | – | FC(F)(F)c1ncc(-c2ccc(C3(N4CCOCC4)COC3)cc2)cn1 [11a, 4-(3-(4-(2-(Trifluoromethyl)Pyrimidin-5-yl)Phenyl)Oxetan-3-yl)Morpholine] | –
< 2 μL min^−1 million^−1 | 43.2 ×10⁻⁶ cm/s | 1.31 | – | – | – | – | – | O=C(c1ccc(-c2cnc(C(F)(F)F)nc2)cc1)N1CCOCC1 [11b, Morpholino(4-(2-(Trifluoromethyl)Pyrimidin-5-yl)Phenyl)Methanone] | –
11 μL min^−1 million^−1 | 39.3 ×10⁻⁶ cm/s | 0.331 | – | – | – | – | – | c1cc(C2(N3CCOCC3)COC2)ccc1N1CCOCC1 [12a, 4-(4-(3-Morpholinooxetan-3-yl)Phenyl)Morpholine] | –
– | 28.3 ×10⁻⁶ cm/s | 3.81 | < 0.1 µM | < 0.1 µM | < 0.1 µM | – | – | COc1ccc(C(=O)Nc2ccc3c(c2)OC(F)(F)O3)cc1 [7b, N-(2,2-Difluorobenzo[d][1,3]dioxol-5-yl)-4-Methoxybenzamide] | –
< 2 μL min^−1 million^−1 | 37.8 ×10⁻⁶ cm/s | 1.11 | – | – | – | – | – | O=C(c1ccc(S(=O)(=O)c2ccccc2)cc1)N1CCOCC1 [10b, Morpholino(4-(Phenylsulfonyl)Phenyl)Methanone] | –
< 2 μL min^−1 million^−1 | 36.4 ×10⁻⁶ cm/s | 0.444 | – | – | – | – | – | O=C(c1ccc(N2CCOCC2)cc1)N1CCOCC1 [12b, 4-Morpholinonebenzene-4-Yl-Morpholine] | –
13 μL min^−1 million^−1 | 43.6 ×10⁻⁶ cm/s | 1.32 | – | – | – | – | – | c1ccc(Oc2ccc(C3(N4CCOCC4)COC3)cc2)nc1 [9a, 4-(3-(4-(Pyridin-2-yloxy)Phenyl)Oxetan-3-yl)Morpholine] | –

Second part, the molecule before the results:

Structure (SMILES) | HHEPG clearance (human hepatocytes) | Papp at 1.5 h [1] | logD [2] | solubility at 24 h (Kinetic solubility; pH 3) | solubility at 24 h (Kinetic solubility; pH 7.4) | solubility at 24 h (Kinetic solubility; pH 10) | Kinetic solubility, in words (Kinetic solubility) | Change in SFlogD of the carbonyl-to-oxetane replacement ([2]; pH 7.4, amino-oxetane versus matched benzamide) | HHEPG clearance, in words (human hepatocytes; compared with benzamide counterpart)
COc1ccc(C(=O)NCC23C[C@H]4C[C@@H](C2)C[C@@H](C3)C4)cc1 [1b, N-(((3R,5R,7R)-Adamantan-1-yl)Methyl)-4-Methoxybenzamide] | – | 32.7 ×10⁻⁶ cm/s | 3.83 | < 0.1 µM | < 0.1 µM | < 0.8 µM | – | – | –
COc1ccc(C2(N[C@@H](C)C(=O)N(C)C)COC2)cc1 [3a, (S)-2-((3-(4-Methoxyphenyl)Oxetan-3-yl)Amino)-N,N-Dimethylpropanamide] | < 3 μL min^−1 million^−1 | 27.3 ×10⁻⁶ cm/s | 0.418 | 464 µM (≈ 129 µg/mL) | 472 µM (≈ 131 µg/mL) | 458 µM (≈ 127 µg/mL) | solubility comparable to their analogous benzamides | −0.59 | –
COc1ccc(C2(Nc3ccc(NC(C)=O)cc3)COC2)cc1 [6a, N-(4-((3-(4-Methoxyphenyl)Oxetan-3-yl)Amino)Phenyl)Acetamide] | 112 μL min^−1 million^−1 | – | – | 509 µM (≈ 159 µg/mL) | 505 µM (≈ 158 µg/mL) | 500 µM (≈ 156 µg/mL) | higher solubility | – | –
COc1ccc(C(=O)N2CCOCC2)cc1 [4b, (4-Methoxyphenyl)(Morpholino)Methanone] | < 3 μL min^−1 million^−1 | 48.3 ×10⁻⁶ cm/s | 0.823 | 461 µM (≈ 102 µg/mL) | 574 µM (≈ 127 µg/mL) | 465 µM (≈ 103 µg/mL) | – | – | –
COc1ccc(C(=O)N(C2CC2)C2CCN(C(C)=O)CC2)cc1 [5b, N-(1-Acetylpiperidin-4-yl)-N-Cyclopropyl-4-Methoxybenzamide] | < 4 μL min^−1 million^−1 | 31.7 ×10⁻⁶ cm/s | 1.25 | 465 µM (≈ 147 µg/mL) | 467 µM (≈ 148 µg/mL) | 299 µM (≈ 94.6 µg/mL) | – | – | –
COc1ccc(C2(NCc3ccccc3)COC2)cc1 [2a, N-Benzyl-3-(4-Methoxyphenyl)Oxetan-3-Amine] | 62 μL min^−1 million^−1 | 36.5 ×10⁻⁶ cm/s | 2.49 | 521 µM (≈ 140 µg/mL) | 359 µM (≈ 96.7 µg/mL) | 285 µM (≈ 76.8 µg/mL) | higher solubility | – | –
COc1ccc(C(=O)NC(C)C(=O)N(C)C)cc1 (stereo not shown) [3b, N-(1-(Dimethylamino)-1-Oxopropan-2-yl)-4-Methoxybenzamide] | < 2 μL min^−1 million^−1 | 32.2 ×10⁻⁶ cm/s | 1 | 461 µM (≈ 115 µg/mL) | 574 µM (≈ 144 µg/mL) | 465 µM (≈ 116 µg/mL) | – | – | –
COc1ccc(C2(N(C3CC3)C3CCN(C(C)=O)CC3)COC2)cc1 [5a, 1-(4-(Cyclopropyl(3-(4-Methoxyphenyl)Oxetan-3-yl)Amino)Piperidin-1-yl)Ethan-1-One] | 38 μL min^−1 million^−1 | 38.8 ×10⁻⁶ cm/s | 1.68 | 299 µM (≈ 103 µg/mL) | 223 µM (≈ 76.8 µg/mL) | 195 µM (≈ 67.2 µg/mL) | – | – | –
COc1ccc(C(=O)NCc2ccccc2)cc1 [2b, N-Benzyl-4-Methoxybenzamide] | 30 μL min^−1 million^−1 | 38.1 ×10⁻⁶ cm/s | 2.74 | 114 µM (≈ 27.5 µg/mL) | 91 µM (≈ 22 µg/mL) | 76 µM (≈ 18.3 µg/mL) | – | – | –
COc1ccc(C2(Nc3ccc4c(c3)OC(F)(F)O4)COC2)cc1 [7a, 2,2-Difluoro-N-(3-(4-Methoxyphenyl)Oxetan-3-yl)Benzo[d][1,3]dioxol-5-Amine] | – | – | – | 7 µM (≈ 2.35 µg/mL) | 8 µM (≈ 2.68 µg/mL) | 12 µM (≈ 4.02 µg/mL) | – | – | significantly higher clearance than its benzamide counterpart
